Test results reported in PubChem BioAssay (NCI).
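Cells were grown in 96-well plates and exposed to each compound for 48 hours at five concentrations; endpoints were interpolated linearly between bracketing concentrations, or set to the highest concentration if not reached. GI50 marks 50% less growth. TGI: total growth inhibition.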

Legend:
Test in all cases: NCI-60 cell line screen, 48 h
HT29 colon = tested on: HT29 colon
ACHN renal = tested on: ACHN renal
OVCAR-4 ovarian = tested on: OVCAR-4 ovarian
SNB-19 CNS = tested on: SNB-19 CNS
786-0 renal = tested on: 786-0 renal
NCI/ADR-RES ovarian = tested on: NCI/ADR-RES ovarian
SN12C renal = tested on: SN12C renal
RXF 393 renal = tested on: RXF 393 renal
DU-145 prostate = tested on: DU-145 prostate
SF-295 CNS = tested on: SF-295 CNS
OVCAR-5 ovarian = tested on: OVCAR-5 ovarian
SR leukemia = tested on: SR leukemia
K-562 leukemia = tested on: K-562 leukemia
NCI-H522 lung = tested on: NCI-H522 lung
NCI-H460 lung = tested on: NCI-H460 lung
EKVX NSCLC = tested on: EKVX NSCLC
IGROV1 ovarian = tested on: IGROV1 ovarian
MDA-MB-231 breast = tested on: MDA-MB-231 breast
UACC-257 melanoma = tested on: UACC-257 melanoma
COLO 205 colon = tested on: COLO 205 colon
OVCAR-3 ovarian = tested on: OVCAR-3 ovarian
SF-539 CNS = tested on: SF-539 CNS
NCI-H226 lung = tested on: NCI-H226 lung
NCI-H23 lung = tested on: NCI-H23 lung
HOP-62 NSCLC = tested on: HOP-62 NSCLC
SF-268 CNS = tested on: SF-268 CNS
HCT-116 colon = tested on: HCT-116 colon
MOLT-4 leukemia = tested on: MOLT-4 leukemia
HCC-2998 colon = tested on: HCC-2998 colon
T-47D breast = tested on: T-47D breast
SK-MEL-28 melanoma = tested on: SK-MEL-28 melanoma
SK-MEL-2 melanoma = tested on: SK-MEL-2 melanoma
SK-OV-3 ovarian = tested on: SK-OV-3 ovarian
MCF7 breast = tested on: MCF7 breast
HL-60(TB) leukemia = tested on: HL-60(TB) leukemia
SW-620 colon = tested on: SW-620 colon
A549 NSCLC = tested on: A549 NSCLC
CAKI-1 renal = tested on: CAKI-1 renal
KM12 colon = tested on: KM12 colon
LOX IMVI melanoma = tested on: LOX IMVI melanoma
HCT-15 colon = tested on: HCT-15 colon
TK-10 renal = tested on: TK-10 renal
BT-549 breast = tested on: BT-549 breast
SK-MEL-5 melanoma = tested on: SK-MEL-5 melanoma
UO-31 renal = tested on: UO-31 renal
UACC-62 melanoma = tested on: UACC-62 melanoma
CCRF-CEM leukemia = tested on: CCRF-CEM leukemia
SNB-75 CNS = tested on: SNB-75 CNS
HS 578T breast = tested on: HS 578T breast
OVCAR-8 ovarian = tested on: OVCAR-8 ovarian
RPMI-8226 leukemia = tested on: RPMI-8226 leukemia
U251 CNS = tested on: U251 CNS
PC-3 prostate = tested on: PC-3 prostate
HOP-92 NSCLC = tested on: HOP-92 NSCLC

SMILES: C/C(=C\c1ccn(-c2ccc(N)cc2F)n1)[C@@H]1C[C@@H]2O[C@]2(C)CCC[C@H](C)[C@H](O)[C@@H](C)C(=O)C(C)(C)[C@@H](O)CC(=O)O1
- GI50 (HT29 colon): 17.3 nM
- TGI (HT29 colon): > 29000 nM
- GI50 (ACHN renal): 202 nM
- TGI (ACHN renal): > 50000 nM
- GI50 (OVCAR-4 ovarian): 400 nM
- TGI (OVCAR-4 ovarian): > 50000 nM
- GI50 (SNB-19 CNS): 242 nM
- TGI (SNB-19 CNS): > 50000 nM
- GI50 (786-0 renal): 99.2 nM
- TGI (786-0 renal): > 50000 nM
- GI50 (NCI/ADR-RES ovarian): 92.1 nM
- TGI (NCI/ADR-RES ovarian): 1190 nM
- GI50 (SN12C renal): 76.8 nM
- TGI (SN12C renal): > 50000 nM
- GI50 (RXF 393 renal): 28.6 nM
- TGI (RXF 393 renal): 404 nM
- GI50 (DU-145 prostate): 24 nM
- TGI (DU-145 prostate): 285 nM
- GI50 (SF-295 CNS): 57.6 nM
- TGI (SF-295 CNS): > 50000 nM
- GI50 (OVCAR-5 ovarian): 116 nM
- TGI (OVCAR-5 ovarian): > 50000 nM
- GI50 (SR leukemia): 23.6 nM
- TGI (SR leukemia): > 50000 nM
- GI50 (K-562 leukemia): 19.7 nM
- TGI (K-562 leukemia): > 50000 nM
- GI50 (NCI-H522 lung): 25.5 nM
- TGI (NCI-H522 lung): 171 nM
- GI50 (NCI-H460 lung): 19.7 nM
- TGI (NCI-H460 lung): > 50000 nM
- GI50 (EKVX NSCLC): 360 nM
- TGI (EKVX NSCLC): > 50000 nM
- GI50 (IGROV1 ovarian): 44.8 nM
- TGI (IGROV1 ovarian): > 50000 nM
- GI50 (MDA-MB-231 breast): 132 nM
- TGI (MDA-MB-231 breast): > 50000 nM
- GI50 (UACC-257 melanoma): > 50000 nM
- TGI (UACC-257 melanoma): > 50000 nM
- GI50 (COLO 205 colon): 17.2 nM
- TGI (COLO 205 colon): 442 nM
- GI50 (OVCAR-3 ovarian): 16.6 nM
- TGI (OVCAR-3 ovarian): 159 nM
- GI50 (SF-539 CNS): 35.2 nM
- TGI (SF-539 CNS): 296 nM
- GI50 (NCI-H226 lung): 5450 nM
- TGI (NCI-H226 lung): > 50000 nM
- GI50 (NCI-H23 lung): 33 nM
- TGI (NCI-H23 lung): > 50000 nM
- GI50 (HOP-62 NSCLC): 38.4 nM
- TGI (HOP-62 NSCLC): > 50000 nM
- GI50 (SF-268 CNS): 82.2 nM
- TGI (SF-268 CNS): > 50000 nM
- GI50 (HCT-116 colon): 16.9 nM
- TGI (HCT-116 colon): > 50000 nM
- GI50 (MOLT-4 leukemia): 28.6 nM
- TGI (MOLT-4 leukemia): > 21800 nM
- GI50 (HCC-2998 colon): 34.7 nM
- TGI (HCC-2998 colon): > 10600 nM
- GI50 (T-47D breast): 60.5 nM
- TGI (T-47D breast): > 50000 nM
- GI50 (SK-MEL-28 melanoma): 1050 nM
- TGI (SK-MEL-28 melanoma): > 50000 nM
- GI50 (SK-MEL-2 melanoma): 51.8 nM
- TGI (SK-MEL-2 melanoma): > 50000 nM
- GI50 (SK-OV-3 ovarian): 172 nM
- TGI (SK-OV-3 ovarian): > 50000 nM
- GI50 (MCF7 breast): < 11.9 nM
- TGI (MCF7 breast): > 50000 nM
- GI50 (HL-60(TB) leukemia): 17.4 nM
- TGI (HL-60(TB) leukemia): 859 nM
- GI50 (SW-620 colon): 21.2 nM
- TGI (SW-620 colon): > 50000 nM
- GI50 (A549 NSCLC): 35.5 nM
- TGI (A549 NSCLC): > 50000 nM
- GI50 (CAKI-1 renal): 123 nM
- TGI (CAKI-1 renal): > 50000 nM
- GI50 (KM12 colon): 15.6 nM
- TGI (KM12 colon): > 50000 nM
- GI50 (LOX IMVI melanoma): 24.1 nM
- TGI (LOX IMVI melanoma): > 50000 nM
- GI50 (HCT-15 colon): 22.6 nM
- TGI (HCT-15 colon): > 50000 nM
- GI50 (TK-10 renal): 93.9 nM
- TGI (TK-10 renal): > 50000 nM
- GI50 (BT-549 breast): 94.3 nM
- TGI (BT-549 breast): > 50000 nM
- GI50 (SK-MEL-5 melanoma): 19.9 nM
- GI50 (UO-31 renal): 176 nM
- TGI (UO-31 renal): > 50000 nM
- GI50 (UACC-62 melanoma): 91.4 nM
- TGI (UACC-62 melanoma): > 50000 nM
- GI50 (CCRF-CEM leukemia): 19.7 nM
- TGI (CCRF-CEM leukemia): > 50000 nM
- GI50 (SNB-75 CNS): 7.66 nM
- TGI (SNB-75 CNS): 206 nM
- GI50 (HS 578T breast): 60.6 nM
- TGI (HS 578T breast): > 16600 nM
- GI50 (OVCAR-8 ovarian): 40.8 nM
- TGI (OVCAR-8 ovarian): > 50000 nM
- GI50 (RPMI-8226 leukemia): 20.4 nM
- TGI (RPMI-8226 leukemia): > 50000 nM
- GI50 (U251 CNS): 28.5 nM
- TGI (U251 CNS): > 50000 nM
- GI50 (PC-3 prostate): 25.6 nM
- TGI (PC-3 prostate): > 50000 nM
- GI50 (HOP-92 NSCLC): 6510 nM
- TGI (HOP-92 NSCLC): > 50000 nM
